Patent US5770688A, “Method and composition for the treatment of mammalian HIV infection” (GSF-Forschungszentrum fur Umwelt und Gesundheit GmbH, priority 1989, dated 1998)

What was measured:
Rausher leukemia virus = conditions: 2 weeks
Experimental: The size of the spleen is taken as a measure of the progress of the disease which eventually leads to the death of the infected animals.
The test of the antiviral effect of the melittin (Seq. ID NO:1) principle was carried out on Balb C mice (12 weeks old; all males). The animals were kept in numbers of 4 per cage. The animals were infected by Rausher leukemia virus (10^5 infectious particles (viruses) per animal in a volume of 0.2 ml) by intraperitoneal injection (ip) followed by subcutaneous injection of the test substance after 10 minutes. The animals were divided into two groups referred to as controls (receiving a sham injection of saline) or test animals (receiving the melittin analogue).
The peptide was dissolved as 100 μg/ml and the controls as well as the test animals were injected with the same volume subcutaneously (0.1 ml) of PBS or PBS+test substance respectively. The injection was carried out 10 minutes after injection of the infectious virus. After 2 days the animals received a new injection of melittin analogue (10 μg/mg body weight) or PBS as a subcutaneous injection of 0.100 ml. After 4 days from the first injection a third injection was performed using 20 μg/mg body weight of melittin analogue.

HIV-infected LC5 cells = experiment: MTT toxicity/killing of HIV infected cells (Biomek 1000); assay type: cell-based, human
Experimental: The KE37-1 (uninfected) and KE37-1/111β (infected) cell lines discussed below are commercially available from the Dr. Robert Gallows Laboratory of the NIH in the United States of America and grown in a medium of RPMI 1640 (GIBCO) and further supplemented with 10% fetal calf serum which contained approximately 100 units of penicillin, 100 μg streptomycin, and approximately 0.25 μg fungizone (Amphotericin B) per milliliter. The human mesenchymal cell lines LC5 and LC5-HIV, discussed below, are deposited with the Collection De L'Institut Pasteur of Paris, France on Mar. 9, 1989 and given the accession numbers I-842 and I-843, respectively. The LC5 and LC5-HIV cell lines were grown in a medium of RPMI 1640 and supplemented with 10% fetal calf serum.
(§1) A series of experiments and which are illustrated graphically in FIGS. 6 through 34, respectively, were designed to detect two extremes. In particular the tests were designed to detect the inhibition of viral release and/or the release of virus which has a reduced ability to infect other cells. This reduced ability to infect other cells is represented, for example, by glycosylation inhibitors, the direct effect on virus release is represented by acylation inhibitors, RT inhibitors and melittin (Seq. ID NO:1). The most important feature of this experimental design, however, is to detect the toxicity of melittin. The present experiments were carried out on both the astrocytoma cell line LC5-HIV (cloned infected cells) and T-lymphocytoma cell line KE37-1/IIIβ (cloned infected cells with HTLV-IIIβ). In both cases the results were essentially identical.
(§2) In the present series of experiments HIV release was tested by a fully automated laboratory robot system and which is manufactured by Beckman Instruments as the Biomek 1000. This system performed the following steps. First, chronically infected cells (cloned) are plated in microtiter plates and grown for a period of seven days. They are then challenged by melittin (Seq. ID NO:1) during this period either for the final day or throughout the period as shown in the figures. The number of living cells are quantified by MTT, that is by a metabolic (dehydrogenase) test. The MTT test is automatically performed. The toxic effect is detected at the time of the experiment and not in a separate control experiment. Furthermore, the supernatant, and which contains released virus cells from the period of time which elapsed from the last wash, and which may vary from 24 hours to 7 days, is collected from the culture, and an aliquot is saved for virus quantification by employing antigen or viral enzyme reverse transcriptase (RT). Furthermore, an aliquot is added to a culture of uninfected cells in microtiter plates for subsequent measurement of the ability of the virus cells to reinfect these uninfected cells. In this regard, the number of infected cells is automatically quantified by an immunoperoxidase staining technique. The test results, as shown, are expressed in terms of toxicity of the melittin (MTT test); the release of HIV from the primary culture (RT test); and the ability of the released virus to infect previously uninfected cells.

HIV = HIV release from chronically infected cells (Biomek 1000); assay type: cell-based; conditions: for inhibition of viral cell (HIV) release from infected cells, in words: FIGS. 6-19; for overall effect, in words: FIGS. 20-29
From the text: as §1, §2

Row | Substance | inhibition of growth / survival of infected cells, in words (HIV-infected LC5 cells) | inhibition of viral cell (HIV) release from infected cells, in words (HIV) | overall effect, in words (HIV) | further results
1 | Gly-Ile-Gly-Ala-Val-Leu-Lys-Val-Leu-Thr-Thr-Gly-Leu-Pro-Ala-Leu-Ile-Ser-Trp-Ile-Gly-Gly-Gly-Gly-Gly-Gly [melittin (1-20)-6-(Gly)-Amide] | inhibited the growth of infected cells | inhibited HIV release |  | animals with spleens greater than 150 mg but lower than 170 mg (borderline) (Rausher leukemia virus): 25%; infected animals that do not develop disease (Rausher leukemia virus): 75%; number of animals with pathological spleen (Rausher leukemia virus): one; spleen weight of the rest of the test group (Rausher leukemia virus): 100 to 150 mg
2 | MHC: MHC (Seq. ID NO:10), (MAJOR histocompatibility complex sequence) (VAAKANRVADEIRHKREKLE) [reference compound] |  |  | do not have any readily apparent effects | 
3 | Melittin COOH: Melittin COOH was tested and appeared to be less efficient than the melittin amid |  |  |  | efficiency compared with melittin amid (HIV): less efficient than the melittin amid
4 | control peptide: HOLST peptide (negative control); no apparent structural similarity to melittin (FAESGVDTPVFNSY) [reference compound] |  |  | without effect | 
5 | mastoparan [reference compound] |  |  | do not have any readily apparent effects | 
6 | melittin 1-20: melittin 1-20 (Seq. ID NO:7) lacks the cell binding part of the molecule | inhibited the growth of infected cells | inhibited HIV release as did the natural melittin and melittin (1-20)-6-(Gly)-Amide |  | 
